Consider 47 molecules from patent publication US6204282A, “Benzimidazole compounds that are vitronectin receptor antagonists” (Schering Corporation, priority 1999, dated 2001).

In the first test the target is T1, αvβ3 receptor (Homo sapiens, UniProt P05106+P06756).
T1 construct: αvβ3 receptor (purified from human placenta); from tissue; host or cells: human placenta
Kind of test: competition radioligand binding assay, 125I-echistatin to purified αvβ3 receptor. The settings on record: inhibition of specific binding of 125I-echistatin (0.05 nM), 3 hour incubation at room temperature.
For `O=C(N[C@@H](CNC(=O)c1cccc(CNCc2nc3ccccc3[nH]2)c1)C(=O)O)OCc1ccccc1` [Example 5-6], the IC50 was ~500 nM. The same measure, in the same setting: for `O=C(N[C@@H](CNC(=O)c1ccc(CNCc2nc3ccccc3[nH]2)cc1)C(=O)O)OCc1ccccc1` [Example 5-1] the value was 5.4 nM; for `O=C(N[C@@H](CNC(=O)c1ccc(CN(Cc2nc3ccccc3[nH]2)C(=O)c2ccc(Cl)cc2)cc1)C(=O)O)OCc1ccccc1` [Example 5-2], 6.5 nM.

Another test addresses αllbβ3 receptor (Homo sapiens, UniProt P05106+P08514). The test can be described thus: similar competitive assay with purified αllbβ3 receptor and 125I-echistatin (specificity index versus αvβ3). Type of test: binding. As to conditions: IC50 αllbβ3 / IC50 αvβ3. From the text: The specificity index, which is a measure of the relative binding affinity for αvβ3 versus αllbβ3, may be determined by dividing the IC50 value for αllbβ3by the IC50 value for αvβ3.
Consider `O=C(NC(CNC(=O)c1ccc(CNCCc2nc3ccccc3[nH]2)cc1)C(=O)O)OCc1ccccc1` (centres unmarked) [Example 5-70], for which the “SPECIFICITY αIIb β3/αvβ3 (specificity index)” value stood at 0.2. As to `O=C(N[C@@H](CNC(=O)c1ccc(CN(Cc2nc3ccccc3[nH]2)C(=O)CCc2ccccc2)cc1)C(=O)O)OCc1ccccc1` [Example 5-16], the “SPECIFICITY αIIb β3/αvβ3 (specificity index)” value was determined as 899.

As for `O=C(N[C@H](CNC(=O)c1ccc(CNCc2nc3ccccc3[nH]2)cc1)C(=O)O)OCc1ccccc1` [Example 5-57], the “SPECIFICITY αIIb β3/αvβ3 (specificity index)” value is listed as 1.43.

For `O=C(N[C@@H](CNC(=O)c1ccc(CN(Cc2nc3cc(Cl)ccc3[nH]2)C(=O)NC2CCCCC2)cc1)C(=O)O)OCc1ccccc1` [Example 5-94], the “SPECIFICITY αIIb β3/αvβ3 (specificity index)” value turned out to be 399. The same measure, in the same setting: for `COCCC(=O)N(Cc1ccc(C(=O)NC[C@H](NC(=O)OCc2ccccc2)C(=O)O)cc1)Cc1nc2ccccc2[nH]1` [Example 5-25] the value was 52.

Take `CCCCOC(=O)N[C@@H](CNC(=O)c1ccc(CN(Cc2nc3ccccc3[nH]2)C(=O)Nc2ccc(F)cc2)cc1)C(=O)O` [Example 5-88]: the “SPECIFICITY αIIb β3/αvβ3 (specificity index)” value is on record as 1657. Consider `COCC(=O)N(Cc1ccc(C(=O)NC[C@H](NS(=O)(=O)c2ccccc2)C(=O)O)cc1)Cc1nc2ccccc2[nH]1` [Example 5-80], for which the “SPECIFICITY αIIb β3/αvβ3 (specificity index)” value stood at 11.

In the case of `O=C(O)CC(NC(=O)c1ccc(CN(Cc2nc3ccccc3[nH]2)C(=O)CCC2CCCC2)cc1)c1ccccc1` (centres unmarked) [Example 5-69], the “SPECIFICITY αIIb β3/αvβ3 (specificity index)” value was 0.4. On the same count and under the same terms, for `CCCCOC(=O)N[C@@H](CNC(=O)c1ccc(CN(Cc2nc3ccccc3[nH]2)C(=O)NC(C)(C)C)cc1)C(=O)O` [Example 5-85] the value was 1223.

For the molecule `CCCCOC(=O)N[C@@H](CNC(=O)c1ccc(CN(Cc2nc3ccccc3[nH]2)C(=O)NCC(=O)O)cc1)C(=O)O` [Example 5-97, N^3-[4-[(Benzimidazol-2-yl)methyl][[(carboxymethyl)amino]carbonyl]aminomethylbenzoyl]-N^2-(n-butoxycarbonyl)-L-2,3-diaminopropionic acid], the “SPECIFICITY αIIb β3/αvβ3 (specificity index)” value was found to be 2600.

For `O=C(N[C@@H](CNC(=O)c1ccc(CN(Cc2nc3ccccc3[nH]2)C(=O)NS(=O)(=O)c2ccc(Cl)cc2)cc1)C(=O)O)OCc1ccccc1` [Example 5-44], the “SPECIFICITY αIIb β3/αvβ3 (specificity index)” value worked out at 66.3. `COCC(=O)N(Cc1ccc(C(=O)NC(CC(=O)O)c2ccccc2)cc1)Cc1nc2ccccc2[nH]1` (centres unmarked) [Example 5-67]: the “SPECIFICITY αIIb β3/αvβ3 (specificity index)” value is 0.5.

Consider `O=C(N[C@@H](CNC(=O)c1ccc(CN(Cc2nc3ccccc3[nH]2)C(=O)Nc2ccc(Cl)cc2)cc1)C(=O)O)OCc1ccccc1` [Example 5-35], for which the “SPECIFICITY αIIb β3/αvβ3 (specificity index)” value is recorded as 240.

For `O=C(N[C@@H](CNC(=O)c1ccc(CN(Cc2nc3ccccc3[nH]2)C(=O)NC2CCCCC2)cc1)C(=O)O)OCc1ccccc1` [Example 5-28], the “SPECIFICITY αIIb β3/αvβ3 (specificity index)” value came out at 1136. Consider `CC(C)(C)OC(=O)N[C@@H](CNC(=O)c1ccc(CNCc2nc3ccccc3[nH]2)cc1)C(=O)O` [Example 5-60], for which the “SPECIFICITY αIIb β3/αvβ3 (specificity index)” value is reported as 90. For the molecule `CCCCOC(=O)N[C@@H](CNC(=O)c1ccc(CN(Cc2nc3ccccc3[nH]2)C(=O)NCC(=O)OCC)cc1)C(=O)O` [Example 5-86, N^3-[4-[(benzimnidazol-2-yl)methyl][[(ethoxycarbonylmethyl)amino]-carbonyl]aminomethylbenzoyl]-N^2-(n-butoxycarbonyl)-L-2,3-diaminopropionic acid], the “SPECIFICITY αIIb β3/αvβ3 (specificity index)” value is given as 793. The same measure, in the same setting: for `CCOC(=O)[C@H](CC(C)C)NC(=O)N(Cc1ccc(C(=O)NC[C@H](NC(=O)OCc2ccccc2)C(=O)O)cc1)Cc1nc2ccccc2[nH]1` [Example 5-53] the value was 483. `O=C(N[C@@H](CNC(=O)c1ccc(CN(Cc2nc3ccccc3[nH]2)C(=O)C2CC2c2ccccc2)cc1)C(=O)O)OCc1ccccc1` (some centres unmarked) [Example 5-22]: the “SPECIFICITY αIIb β3/αvβ3 (specificity index)” value amounted to 26. Still for that read-out and setting: for `CCOCC(=O)N(Cc1ccc(C(=O)NC[C@H](NC(=O)OCc2ccccc2)C(=O)O)cc1)Cc1nc2ccccc2[nH]1` [Example 5-26] the value was 91.

For the molecule `CCOC(=O)[C@@H](NC(=O)N(Cc1ccc(C(=O)NC[C@H](NC(=O)OCc2ccccc2)C(=O)O)cc1)Cc1nc2ccccc2[nH]1)C(C)C` [Example 5-51], the “SPECIFICITY αIIb β3/αvβ3 (specificity index)” value was found to be 1210. Consider `CCOC(=O)CCNC(=O)N(Cc1ccc(C(=O)NC[C@H](NC(=O)OCc2ccccc2)C(=O)O)cc1)Cc1nc2ccccc2[nH]1` [Example 5-54], for which the “SPECIFICITY αIIb β3/αvβ3 (specificity index)” value is recorded as 413. Regarding `CCOC(=O)N(Cc1ccc(C(=O)NC[C@H](NC(=O)OCc2ccccc2)C(=O)O)cc1)Cc1nc2ccccc2[nH]1` [Example 5-20], the “SPECIFICITY αIIb β3/αvβ3 (specificity index)” value came out at 15.

Turning to `COCC(=O)N(Cc1ccc(C(=O)NC[C@@H](NC(=O)OCc2ccccc2)C(=O)O)cc1)Cc1nc2ccccc2[nH]1` [Example 5-58], the “SPECIFICITY αIIb β3/αvβ3 (specificity index)” value was 46.

In the case of `CC(=O)OC(C(=O)N(Cc1ccc(C(=O)NC[C@H](NC(=O)OCc2ccccc2)C(=O)O)cc1)Cc1nc2ccccc2[nH]1)c1ccccc1` (some centres unmarked) [Example 5-18], the “SPECIFICITY αIIb β3/αvβ3 (specificity index)” value stood at 82. Take `CCOC(=O)[C@H](CCSC)NC(=O)N(Cc1ccc(C(=O)NC[C@H](NC(=O)OCc2ccccc2)C(=O)O)cc1)Cc1nc2ccccc2[nH]1` [Example 5-48]: the “SPECIFICITY αIIb β3/αvβ3 (specificity index)” value worked out at 2028.

On to `CC(NC(=O)N(Cc1ccc(C(=O)NC[C@H](NC(=O)OCc2ccccc2)C(=O)O)cc1)Cc1nc2ccccc2[nH]1)c1cccc2ccccc12` (some centres unmarked) [Example 5-36], for which the “SPECIFICITY αIIb β3/αvβ3 (specificity index)” value is reported as 129.

Take `O=C(N[C@@H](CNC(=O)c1ccc(CN(Cc2nc3ccccc3[nH]2)C(=O)Nc2ccc(F)cc2)cc1)C(=O)O)OCc1ccccc1` [Example 5-49]: the “SPECIFICITY αIIb β3/αvβ3 (specificity index)” value is 504. As to `CC(C)NC(=O)N(Cc1ccc(C(=O)NC[C@H](NC(=O)OCc2ccccc2)C(=O)O)cc1)Cc1nc2ccccc2n1C` [Example 5-93], the “SPECIFICITY αIIb β3/αvβ3 (specificity index)” value is given as 124. As to `CCCCOC(=O)N[C@@H](CNC(=O)c1ccc(CN(Cc2nc3ccccc3[nH]2)C(=O)NC2CCCCC2)cc1)C(=O)O` [Example 5-82], the “SPECIFICITY αIIb β3/αvβ3 (specificity index)” value worked out at 1259. As to `CC(C)(C)OC(=O)N[C@@H](CNC(=O)c1ccc(CN(Cc2nc3ccccc3[nH]2)C(=O)CCC2CCCC2)cc1)C(=O)O` [Example 5-64], the “SPECIFICITY αIIb β3/αvβ3 (specificity index)” value amounted to 499. For `CC(c1nc2ccccc2[nH]1)N(Cc1ccc(C(=O)NC[C@H](NC(=O)OCc2ccccc2)C(=O)O)cc1)C(=O)CCc1ccccc1` (some centres unmarked) [Example 5-78], the “SPECIFICITY αIIb β3/αvβ3 (specificity index)” value is on record as 33.9. `CSCC(=O)N(Cc1ccc(C(=O)NC[C@H](NC(=O)OCc2ccccc2)C(=O)O)cc1)Cc1nc2ccccc2[nH]1` [Example 5-23]: the “SPECIFICITY αIIb β3/αvβ3 (specificity index)” value is reported as 22.

For the molecule `CCCCOC(=O)N[C@@H](CNC(=O)c1ccc(CN(Cc2nc3ccccc3[nH]2)C(=O)N[C@@H](CCSC)C(=O)OCC)cc1)C(=O)O` [Example 5-87], the “SPECIFICITY αIIb β3/αvβ3 (specificity index)” value turned out to be 1569. For `O=C(N[C@H](CNC(=O)c1ccc(CN(Cc2nc3ccccc3[nH]2)C(=O)CCc2ccccc2)cc1)C(=O)O)OCc1ccccc1` [Example 5-59], the “SPECIFICITY αIIb β3/αvβ3 (specificity index)” value was 65. As for `O=C(NC[C@H](NS(=O)(=O)c1ccccc1)C(=O)O)c1ccc(CN(Cc2nc3ccccc3[nH]2)C(=O)NC2CCCCC2)cc1` [Example 5-81], the “SPECIFICITY αIIb β3/αvβ3 (specificity index)” value is listed as 8.0.

As to `COCC(=O)N(Cc1ccc(C(=O)NC[C@H](NC(=O)OCc2ccccc2)C(=O)O)cc1)C(C)c1nc2ccccc2[nH]1` (some centres unmarked) [Example 5-77], the “SPECIFICITY αIIb β3/αvβ3 (specificity index)” value came to 12.4. Consider `CCCCOC(=O)N[C@@H](CNC(=O)c1ccc(CN(Cc2nc3ccccc3[nH]2)C(=O)N[C@H](C(=O)OCC)C(C)C)cc1)C(=O)O` [Example 5-90], for which the “SPECIFICITY αIIb β3/αvβ3 (specificity index)” value is 1697. Take `COCC(=O)N(CCc1nc2ccccc2[nH]1)Cc1ccc(C(=O)NCC(NC(=O)OCc2ccccc2)C(=O)O)cc1` (centres unmarked) [Example 5-72]: the “SPECIFICITY αIIb β3/αvβ3 (specificity index)” value is recorded as 0.5. Consider `CCOC(=O)c1ccc(NC(=O)N(Cc2ccc(C(=O)NC[C@H](NC(=O)OCc3ccccc3)C(=O)O)cc2)Cc2nc3ccccc3[nH]2)cc1` [Example 5-47], for which the “SPECIFICITY αIIb β3/αvβ3 (specificity index)” value was found to be 1252. For the molecule `CC(C)(C)NC(=O)N(Cc1ccc(C(=O)NC[C@H](NC(=O)OCc2ccccc2)C(=O)O)cc1)Cc1nc2ccccc2[nH]1` [Example 5-34], the “SPECIFICITY αIIb β3/αvβ3 (specificity index)” value was determined as 421. On the same count and under the same terms, the figure for `O=C(O)CC(NC(=O)c1ccc(CNCc2nc3ccccc3[nH]2)cc1)c1ccccc1` (centres unmarked) [Example 5-65] is 0.4; for `O=C(O)CNC(=O)N(Cc1ccc(C(=O)NC[C@H](NC(=O)OCc2ccccc2)C(=O)O)cc1)Cc1nc2ccccc2[nH]1` [Example 5-96, N^3-[4-[(Benzimidazol-2-yl)methyl][[(carboxymethyl)amino]carbonyl]aminomethylbenzoyl]-N^2 -Cbz-L-2,3-diaminopropionic acid] it is 528. The same measure, in the same setting: the figure for `O=C(N[C@@H](CNC(=O)c1ccc(CN(Cc2nc3ccccc3[nH]2)C(=S)NCCc2ccccc2)cc1)C(=O)O)OCc1ccccc1` [Example 5-31] is 80. As for `CC(=O)N(CCc1nc2ccccc2[nH]1)Cc1ccc(C(=O)NCC(NC(=O)OCc2ccccc2)C(=O)O)cc1` (centres unmarked) [Example 5-71], the “SPECIFICITY αIIb β3/αvβ3 (specificity index)” value came out at 0.3.
